Patent US5021439A, “Cerebral function ameliorating agents related to Tan-950 A” (priority 1988, dated 1991)
Read-outs that look alike come from different tables or passages of the source.

What was measured:
[1] = molecular target: Quisqualate-type receptor; assay: Binding assay of Quisqualate-type receptor (3H-AMPA) on rat forebrain crude synaptic membrane; conditions: for IC50: 5 nM 3H-AMPA, pH 7.1, 0° C., 90 min, read-out: Affinity to Quisqulate-type receptor (3H-AMPA), IC50; for Affinity to the Quisqualate-type-receptor (in words): summary of Table 5
From the text: (§1) The receptors of the exitatory amino acid (especially, glutamate) are classified into NMDA type, Quisqualate type and Kainate type. 3H-CPP [3-(2-carboxypiperazin-4-yl)propyl-1-[…]] as the ligand (a radio active substance which has high affinity for the receptor) for the NMDA-type-receptor, ^3 H-AMPA (DL-α-amino-3-hydroxy-5-methylisoxazole-4-propionic acid) as the ligand for the quisqualate-type-receptor, and ^3 H-kainic acid as the ligand for the kainate-type-receptor were used respectively. A sample of the crude synaptic membrane prepared from the forebrain of rat was washed 4 times by Tris hydrochloric acid buffer (pH 7.1) and kept in a freezing condition at -20° C. until its use.
(§2) Samples of the frozen crude synaptic membrane were melted and, after floating on 50 mM Tris hydrochloric acid buffer (pH 7.1), incubated for 30 minutes at 37° C. After the incubation, the synaptic membrane was centrifuged (48,000×g) and washed 3 times with 50 mM Tris hydrochloric acid buffer and used in the test.
(§3) In the binding assay of the NMDA-type-receptor, samples of the synaptic membrane were incubated in the presence or absence of a test compound together with 10 nM ^3 H-CPP in 50 mM Tris hydrochloric acid buffer (pH 7.1, 0° C.) for 15 minutes. The sediment (pellet) containing synapse membrane which was recovered by centrifugation of the incubation solution was rinsed with 50 mM Tris hydrochloric acid buffer (pH 7.1) and dissolved in 0.5 ml of Protosol® (made by New England Nuclear Inc.). In the binding assay of Quisqualate-type-receptor and Kainate-type-receptor, samples of the synapse was incubated in the presence or absence of a test compound in 5 nM ^3 H-AMPA (Quisqualate-type-receptor) or 2 nM ^3 H-Kainic acid (Kainate-type-receptor) together with 50 mM Tris hydrochloric acid buffer (pH 7.1, 0° C.) for 90 minutes. The solution was filtered with Whatman GF/B filter (Whatman®, made by Whatman Inc.) under reduced pressure and the filter was washed 3 times with 50 mM Tris hydrochloric acid buffer. The radioactivity on the filter was measured by a conventional method. The specific binding amount was determined by subtracting the non-specific binding from the total binding, taking the binding in the presence of an excessive non-radioactive L-sodium glutamate (1 mM) as the amount of the non-specfic binding, i.e., the binding to anything other than the receptor.

Kainate-type receptor = assay: Binding assay of Kainate-type receptor (3H-kainic acid) on rat forebrain crude synaptic membrane; conditions: for Affinity to Kainate-type receptor (3H-KA), IC50: 2 nM 3H-Kainic acid, pH 7.1, 0° C., 90 min; for Affinity to the Kainate-type-receptor (in words): summary of Table 5
From the text: as §1, §2, §3

[2] = tested on: glutamate receptor (NMDA type, Quisqualate type and Kainate type); assay: Affinity for the glutamate receptors of the brain, 3 sub-types taken together; format: binding, rat; conditions: summary of Table 5
From the text: as §1, §2
as §3, with “receptor. The 50% inhibiting concentration (IC50) of the compound to be tested was determined as the concentration which inhibits 50% of the specific receptor binding of ^3 H-CPP, ^3 H-AMPA or ^3 H-kainic acid.” for “receptor.”

NMDA-type receptor = assay: Binding assay of NMDA-type receptor (3H-CPP) on rat forebrain crude synaptic membrane; conditions: for IC50: 10 nM 3H-CPP, pH 7.1, 0° C., 15 min, read-out: Affinity to NMDA-type receptor (3H-CPP), IC50; for Affinity to the NMDA-type-receptor (in words): summary of Table 5
From the text: as §1, §2
as §3, with “receptor. The 50% inhibiting concentration (IC50) of the compound to be tested was determined as the concentration which inhibits 50% of the specific receptor binding of ^3 H-CPP, ^3 H-AMPA or ^3 H-kainic acid.” for “receptor.”

[3] = tested on: neurons of rat hippocampus; assay: Excitatory action on neurons of rat hippocampus in vitro (CA1 spike recording in slices); format: cell-based; conditions: rat hippocampal slices, CA1 pyramidal cell layer, Krebs-Ringer solution 33° C., read-out: Minimum effective concentration to induce firing of hippocampus nervous cell
Description: Male Wister rats (body weight: 300 -350 g) were used in the test. After cutting the head of rats, the brain was quickly taken out and […] thickness of the sliced samples of a hippocampus was prepared by a slice cutter. These samples were incubated in a nutrient solution (Krebs-Ringer solution, 33° C.) saturated with a mixed gas of 95% of oxygen gas and 5% of carbon dioxide gas for one or more hours. The test was carried out in the perfusion cisterna with perfusing at the flow speed of 1.5 ml/min. The action potential (spike) in CA1 pyramidal cell layer of the hippocampus was recorded extracellularlly by using a glass electrode filled with 2M NaCl solution. The test compounds were added to the perfusate and the change in number of the spikes with passage of time was counted by a pulse counter and recorded on the recorder. The Krebs-Ringer's solution contains 124 mM of NaCl, 5 mM of KCl, 1.24 mM of KH2 PO4, 1.3 mM of MgSO4, 2.4 mM of CaCL2, 26 mM of […] and 10 mM of glucose.

[4] = tested on: Memory Dysfunction Induced by Cycloheximide Administration; assay: Improvement of cycloheximide-induced memory dysfunction, passive avoidance in mice; format: in vivo, C57BL/b mice; conditions: for Tested Retention Time (percentage to control group), latency: i.p., twice, 30 min before acquisition and before retention test, memory impairment group = 100; for Effect on memory dysfunction / latency (in words): mouse, in vivo
Description: Experimental memory disturbance was induced by administering a protein synthesis inhibiting agent, cycloheximide to C57BL/b male mice of 5 week-age. The memory test was carried out using a passive avoidance learning equipment consisting of two chambers of dark and bright. At first, a memory acquisition process of mice was carried out. In this process, a mouse was released in the bright chamber and the guillotine type door connecting between bright and dark chambers was open. Immediately after the mouse that likes a dark place having entered into the dark chamber, said guillotine type door was closed and an electric shock of 0.4 mA was given to the mouse for 3 seconds through the floor grid. Mice learned through this process to receive electric shock from the floor once they move to the dark chamber. However, the memory formation in mice that received cycloheximide (60 mg/Kg) subcutaneously 30 minutes before this memory acquisition process becomes insufficient. The memory retention test was carried out in accordance with similar procedures with mice which received cycloheximide (memory dysfunction group) and normal mice on the next day that the memory acquisition process was carried out. A time from the release of mice in the bright chamber to the entry into the dark chamber through the guillotine type door opened was measured (latency). The latency was shorter in the memory dysfunction group and the effectiveness of the compounds was determined in terms of a degree of the prolongation of latency. The test compounds were intraperitoneally administered twice in total to the mice each 30 minutes before the memory acquisition process and the memory keeping test.
The effect of the compounds in improving a memory dysfunction was expressed as a percentage in which the latency in the memory impairment group at the memory retention test was regarded as 100, and the results are shown in Table 7.

SMILES | IC50 [1] | Affinity to the Quisqualate-type-receptor (in words) [1] | Affinity to Kainate-type receptor (3H-KA), IC50 (Kainate-type receptor) | Affinity to the 3 sub-type receptors (in words) [2] | IC50 (NMDA-type receptor) | minimal effective concentration ([3]; Rattus norvegicus, Neuron) | Affinity to the NMDA-type-receptor (in words) (NMDA-type receptor) | Tested Retention Time (percentage to control group), latency ([4]; 10 mg/kg, * in table: p < 0.05) | Affinity to the Kainate-type-receptor (in words) (Kainate-type receptor) | Tested Retention Time (percentage to control group), latency ([4]; 1 mg/kg) | Effect on memory dysfunction / latency (in words) [4] | minimal effective concentration ([3]; listed as 72 (hydrochloride))
CCc1[nH]oc(=O)c1C[C@H](N)C(=O)O [Compound 81] | 0.67 µM | strong affinity | 17 µM | high affinities to the 3 sub-type receptors | 35 µM | ≥ 1 µM | – | – | – | – | – | –
Cc1[nH]oc(=O)c1[C@@H](N)C(=O)O [Compound 155] | > 100 µM | – | > 100 µM | differences in their affinities | 8.3 µM | ≥ 10 µM | high affinity | – | – | – | – | –
N[C@@H](Cc1c(C2CCCC2)[nH]oc1=O)C(=O)O [Compound 158] | 0.31 µM | strong affinity | 57 µM | differences in their affinities | > 100 µM | ≥ 0.3 µM | – | – | – | – | – | –
N[C@@H](Cc1c(-c2ccccc2)[nH]oc1=O)C(=O)O [Compound 87] | 15 µM | – | 26 µM | high affinities to the 3 sub-type receptors | 11 µM | 30 µM | – | – | – | – | – | –
CC(C)c1[nH]oc(=O)c1C[C@H](N)C(=O)O [Compound 84] | 3.8 µM | – | 67 µM | high affinities to the 3 sub-type receptors | > 100 µM | ≥ 3 µM | – | – | – | – | – | –
N[C@@H](C(=O)O)c1c[nH]oc1=O [Compound 149] | > 100 µM | – | > 100 µM | differences in their affinities | 5.8 µM | ≥ 30 µM | high affinity | – | – | – | – | –
N[C@@H](CCC(=O)O)C(=O)O [Glutamic acid, reference compound] | – | – | – | – | – | – | – | 101 percentage to control group | – | – | – | –
N[C@@H](Cc1c[nH]oc1=O)C(=O)N1CCCCC1C(=O)O (stereo partly shown) [Compound 132] | 1 µM | strong affinity | 4.5 µM | high affinities to the 3 sub-type receptors | 6.3 µM | ≥ 300 µM | high affinity | – | strong affinity | – | – | –
Cc1[nH]oc(=O)c1C[C@H](N)C(=O)O [Compound 75] | 0.31 µM | strong affinity | 7.3 µM | high affinities to the 3 sub-type receptors | 11 µM | ≥ 1 µM | – | 184 percentage to control group | strong affinity | 205 percentage to control group | prolong the latency significantly | –
N[C@H](Cc1c[nH]oc1=O)C(=O)O [Compound 72] | 14 µM | – | 37 µM | high affinities to the 3 sub-type receptors | 6.2 µM | ≥ 300 µM | high affinity | 278 percentage to control group | – | 217 percentage to control group | prolong the latency significantly | 300 µM
CCc1[nH]oc(=O)c1[C@@H](N)C(=O)O [Compound 180] | > 100 µM | – | > 100 µM | differences in their affinities | 7.9 µM | ≥ 30 µM | high affinity | – | – | – | – | –
N[C@@H](Cc1c(C2CC2)[nH]oc1=O)C(=O)O [Compound 173] | 0.12 µM | strong affinity | 3.8 µM | high affinities to the 3 sub-type receptors | 13 µM | ≥ 0.3 µM | – | – | strong affinity | – | – | –
Cc1[nH]oc(=O)c1C[C@@H](N)C(=O)O [Compound 78] | 3.9 µM | strong affinity | 98 µM | high affinities to the 3 sub-type receptors | 68 µM | ≥ 30 µM | – | 222 percentage to control group | – | 179 percentage to control group | prolong the latency significantly | –
